Data taken from patent US11986463B2, “Combination therapy for the treatment of gastrointestinal stromal tumor” (Deciphera Pharmaceuticals, LLC, priority 2018, dated 2024).
Like-named read-outs stand apart in the source and are kept apart here.

Experiments:
[1] = test system: GIST-T1/D816E imatinib resistant cells; assay: Colony outgrowth assay, GIST-T1/D816E; assay type: cell-based
Excerpt: (§1) The outgrown cell colonies were stained with crystal violet and counted.

[2] = test system: GIST-T1/T670I imatinib resistant cells; assay: Colony outgrowth assay, GIST-T1/T670I; assay type: cell-based
Excerpt: as §1

[3] = test system: GIST-T1 (57 bp exon 11 deletion) imatinib sensitive cells; assay: Colony outgrowth assay, GIST-T1; assay type: cell-based
Excerpt: as §1

GIST T1 xenograft = GIST T1 xenograft model; assay type: in vivo, mice; conditions: for mice with partial tumor regression during the dosing period / mice with complete tumor regression during the dosing period: days 10-27; for mice remaining in partial tumor regression at the end of study: end of study day 66
Experimental: The GIST T1 xenograft model was performed in compliance with all the laws, regulations and guidelines of the National Institutes of Health (NIH) and with the approval of the Animal Care and Use Committee of MI Bioresearch (Ann Arbor, MI), an AAALAC accredited facility. All mice had food and water ad libitum. […] Female Envigo nude mice (HsdCrl:Athymic Nude-NU-Foxn1nu; 6-7 weeks old) were inoculated subcutaneously just below the right high axilla with five million cells in Dulbecco's Phosphate Buffered Saline mixed with an equal volume of Matrigel, using a 27 gauge needle and syringe. When tumor burdens reached 117 mm^3 on average on day 10, mice were randomly assigned into groups such that the mean tumor burden for all groups was within 10% of the overall mean tumor burden for the study population. […] On Day 27, all animals were placed on control diet to monitor tumor regrowth. Tumor volume and body weight were measured thrice weekly. Tumor burden (mg) was estimated from caliper measurements by the formula: tumor burden (mg=mm^3)=(length×width^2)/2.

[4] = target: T1, human efflux transporter BCRP (Homo sapiens, UniProt Q9UNQ0); assay: BCRP vesicular transport inhibition assay; assay type: biochemical
T1 construct: inside-out membrane vesicles
T1 sequence (Q9UNQ0 1-655): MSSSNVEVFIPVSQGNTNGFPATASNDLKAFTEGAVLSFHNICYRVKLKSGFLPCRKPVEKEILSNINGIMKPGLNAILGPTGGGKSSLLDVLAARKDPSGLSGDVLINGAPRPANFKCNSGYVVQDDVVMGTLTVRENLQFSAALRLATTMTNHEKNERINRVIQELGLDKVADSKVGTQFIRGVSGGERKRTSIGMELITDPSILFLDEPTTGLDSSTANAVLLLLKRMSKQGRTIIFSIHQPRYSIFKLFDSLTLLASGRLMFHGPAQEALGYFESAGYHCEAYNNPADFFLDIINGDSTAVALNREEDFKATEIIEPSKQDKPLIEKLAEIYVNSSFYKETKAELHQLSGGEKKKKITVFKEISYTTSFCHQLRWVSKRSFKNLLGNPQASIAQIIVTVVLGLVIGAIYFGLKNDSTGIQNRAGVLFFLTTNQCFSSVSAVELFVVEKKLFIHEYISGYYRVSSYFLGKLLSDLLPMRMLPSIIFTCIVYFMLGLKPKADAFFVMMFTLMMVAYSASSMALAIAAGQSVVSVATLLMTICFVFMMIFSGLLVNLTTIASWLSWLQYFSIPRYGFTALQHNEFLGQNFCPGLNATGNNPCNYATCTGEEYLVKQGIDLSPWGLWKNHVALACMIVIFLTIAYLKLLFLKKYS
Experimental: (§2) The IC50 value was estimated to be approximately 0.04 μM.

BCRP = target: T2, BCRP (Homo sapiens, UniProt Q9UNQ0); assay: BCRP vesicular transport inhibition assay; assay type: biochemical; conditions: human; 0.04 μM, lowest concentration tested; read-out: inhibition of the transport of the probe substrate of BCRP
T2 construct: inside-out membrane vesicles
T2 sequence (Q9UNQ0 1-655): T1 sequence (Q9UNQ0 1-655)
Experimental: as §2

[5] = test system: Ba/F3 cells transformed with oncogenic KIT V560D mutant; conditions: 100 nM, 250 nM or 500 nM imatinib single agent
Experimental: A saturation mutagenesis study was performed in Ba/F3 cells transformed with oncogenic KIT V560D mutant. DNA nicking was induced by N-ethyl-N-nitrosourea (ENU) for 18 hours to generate additional mutations in the KIT gene or other genes in a random fashion. Assays were conducted in 6 well plates with 100 cells seeded per well. […] These cells were subjected to PCR and sequencing of the KIT gene to determine the presence of a resistant secondary mutation induced by the ENU treatment.

[6] = low dose Compound A approximately 25 mg/kg/day in diet, trametinib 0.5 mg/kg BID where combined

CCn1c(=O)c(-c2cc(NC(=O)Nc3ccccc3)c(F)cc2Br)cc2cnc(NC)cc21 [Compound A, 1-[4-bromo-5-[1-ethyl-7-(methylamino)-2-oxo-1,2-dihydro-1,6-naphthyridin-3-yl]-2-fluorophenyl]-3-phenylurea]
GIST T1/D816E colony outgrowth ([1]; Compound A 50 nM, 100 nM or 250 nM single agent (FIG. 14B)): 81-93 % of vehicle control | GIST T1/T670I colony outgrowth ([2]; Compound A 100 nM or 250 nM single agents, dose dependent (FIG. 10C)): 78-89 % of vehicle control | GIST T1 colony outgrowth ([3]; Compound A single agents (FIG. 14A)): 37-41 % of vehicle control | mice with partial tumor regression during the dosing period (GIST T1 xenograft; high dose Compound A approximately 100 mg/kg/day in diet): 4/10 | mice with complete tumor regression during the dosing period (GIST T1 xenograft; high dose Compound A approximately 100 mg/kg/day in diet, trametinib 0.5 mg/kg BID where combined): 6/10 | mice remaining in partial tumor regression at the end of study (GIST T1 xenograft; high dose Compound A approximately 100 mg/kg/day, trametinib 0.5 mg/kg BID where combined): 1/10 | mice with complete tumor regression during the dosing period (GIST T1 xenograft; [6]): 2/10 | mice with partial tumor regression during the dosing period (GIST T1 xenograft; [6]): 6/10 | mice remaining in partial tumor regression at the end of study (GIST T1 xenograft; low dose Compound A approximately 25 mg/kg/day, trametinib 0.5 mg/kg BID where combined): 2/10 | IC50 ([4]; 7 concentrations, vesicular transport inhibition, read-out: IC50, BCRP (estimated)): ~40 nM | IC50 ([4]; read-out: IC50, BCRP efflux transporter): 40 nM | inhibition at 0.04 µM (BCRP): 44%

CCn1c(=O)c(-c2cc(NC(=O)Nc3ccccc3)c(F)cc2Br)cc2cnc(N)cc21 [Compound B, 1-(5-(7-amino-1-ethyl-2-oxo-1,2-dihydro-1,6-naphthyridin-3-yl)-4-bromo-2-fluorophenyl)-3-phenylurea]
GIST T1/D816E colony outgrowth ([1]; Compound B 50 nM, 100 nM or 250 nM single agent (FIG. 9B)): 59-84 % of vehicle control | GIST T1/D816E colony outgrowth ([1]; Compound B 50 nM, 100 nM or 250 nM single agent (FIG. 15)): 52-95 % of vehicle control | GIST T1/D816E colony outgrowth ([1]; Compound B 100 nM or 250 nM single agent (FIG. 13B)): 58-84 % of vehicle control | GIST T1/D816E colony outgrowth ([1]; Compound B 100 nM or 250 nM single agents (FIG. 11B)): 74-83 % of vehicle control | GIST T1/T670I colony outgrowth ([2]; Compound B 50 nM, 100 nM, 250 nM single agents (FIG. 9C)): 75-78 % of vehicle control | GIST T1/T670I colony outgrowth ([2]; Compound B 100 nM or 250 nM single (FIG. 13C)): 75-78 % of vehicle control | GIST T1/T670I colony outgrowth ([2]; Compound B 100 nM or 250 nM single agent (FIG. 11C)): 72-78 % of vehicle control | reduction of GIST T1 colony outgrowth compared to vehicle control ([3]; Compound B single agent (FIG. 9A)): 42-54% | GIST T1 colony outgrowth ([3]; Compound B single agent (FIG. 13A)): 42-54 % of vehicle control | GIST T1 colony outgrowth ([3]; each concentration of Compound B as a single agent (FIG. 11A)): 27-31 % of vehicle control

Cc1ccc(NC(=O)c2ccc(CN3CCN(C)CC3)cc2)cc1Nc1nccc(-c2cccnc2)n1 [imatinib, reference compound]
outgrowth of resistant secondary KIT mutations [5]: T670I, K807E, and/or D816V imatinib-resistant secondary KIT mutants were identified | reduction of GIST-T1/T670I colonies ([2]; imatinib 500 nM single agent (FIG. 10C)): does not show any reduction of colonies
